Measurements: patent US20100113612A1, “NOVEL USE OF HYDROXYTYROSOL AND OLIVE EXTRACTS/CONCENTRATE CONTAINING IT” (priority 2007, published 2010)

Tested on: Drosophila melanogaster (Oregon wild strain)
Assay: Life extending experiments with Drosophila (lifespan study)
Format: in vivo
Settings: for Mean Lifespan: from age of 15 days on
Procedure: Drosophila melanogaster (Oregon wild strain) were used for lifespan study. Flies were reared in a light/dark cycle of 12:12 hours at a temperature of 25° C. and 65% relative humidity. Drosophila were fed with a standard medium consisting of 170 g of corn flour, 15 g of agar, 15 g of yeast, 10 ml of 100% propionic acid, 130 g of sucrose, and 2000 ml of water.
One-day-old Drosophila were transferred to plastic vials (25×100 mm) containing 2 ml of the diet medium, which was replaced every 3 days. 10 flies from each gender were kept in one vial. Hydroxytyrosol was provided in the diet to Drosophila from age of 15 days on. The Drosophilae were counted every 3 days until all flies died. Survivals were calculated at the end of the experiments after correcting total loss incurred from handling (Phillips J P, Campbell S D, Michaud D, Charbonneau M, Hilliker A J, Proc Natl Acad Sci USA. 1989, 86(8), 2761-2765: “Null mutation of copper/zinc superoxide dismutase in Drosophila confers hypersensitivity to paraquat and reduced longevity.”). The mean lifespan was calculated according to the method described by Cui X, Dai X G, Li W B, Zhang B L, Fang Y Z in Am. J. Chin. Med. 1999, 27(3-4), 407-413: “Effects of lu-duo-wei capsule on prolonging life span of housefly and Drosophila melanogaster.”

## OCCc1ccc(O)c(O)c1 [Hydroxytyrosol, 3,4-dihydroxyphenylethanol]
1 mg/100 g in the diet
  % Increase of lifespan compared to control: 8.23%
  Mean Lifespan: 75.14 days
5 mg/100 g in the diet
  % Increase of lifespan compared to control: 11.55%
  Mean Lifespan: 77.44 days
10 mg/100 g in the diet
  % Increase of lifespan compared to control: 3.89%
  Mean Lifespan: 72.12 days
20 mg/100 g in the diet
  % Increase of lifespan compared to control: 6.97%
  Mean Lifespan: 74.26 days
50 mg/100 g in the diet
  % Increase of lifespan compared to control: 4.02%
  Mean Lifespan: 72.21 days
Male Drosophila, 5 mg/100 g diet
  lifespan extension (best effect): 11.5%
